{"source": "patent US6399654B1", "about": "“Biflavanoids and derivatives thereof as antiviral agents” (priority 1995, dated 2002)", "key": {"[1]": {"system": "Madin Darby canine kidney (MDCK) cells", "conditions": "Influenza A (H3N2) test"}, "Adenovirus Type 5": {"system": "Adenovirus Type 5", "experiment": "Adenovirus type 5 neutral red dye uptake in A549 cells", "format": "cell-based", "conditions": "Human mastadenovirus C, A549; Adenovirus Type 5; read-out: Neutral Red EC50"}, "Hepatitis B Virus (HBV) [2]": {"system": "Hepatitis B Virus (HBV)", "experiment": "HBV replication intermediates (RI, intracellular HBV DNA) in 2.2.15 cells", "format": "cell-based", "method": "Test compounds were added daily for a nine continuous day period; the culture medium was collected and stored for analysis of extracellular (virion) HBV DNA after 0, 3, 6, and 9 days of treatment. The treated cells were lysed 24 hours following day 9 of treatment for the analysis of intracellular HBV genomic forms. The overall levels of HBV DNA (both extracellular and intracellular DNA) and the relative rate of HBV replication (intracellular DNA) were analyzed quantitatively. The analysis was performed using blot hybridization techniques and [^32P]-labeled HBV-specific probes. The HBV DNA levels were measured by comparison to known amounts of HBV DNA standards applied to every nitrocellulose membrane (gel or slot blot). An AMBIS beta scanner, which measures the radioactive decay of the hybridized probes directly from the nitrocellulose membranes, was used for the quantitative analysis. Standard curves, generated by multiple analyses, were used to correlate CPM measurements made by the beta scanner with relative levels of target HBV DNA. The levels of HBV virion DNA released into the culture medium were analyzed by a slot blot hybridization procedure. HBV DNA levels were then compared to those at day 0 to determine the effect of the test compound. A known positive drug was evaluated in parallel with test compounds in each test."}, "Measles Virus [3]": {"system": "Measles Virus", "experiment": "microbe, parasite or virus in culture", "format": "cell-based", "conditions": "Measles morbillivirus, BSC-1; Measles Virus; read-out: CPI Inhibition EC50"}, "in vitro [4]": {"experiment": "in vitro", "conditions": "African green monkey"}, "[5]": {"system": "Respiratory Syncytial Virus", "experiment": "microbe, parasite or virus in culture", "format": "cell-based", "conditions": "human respiratory syncytial virus, MA104; read-out: CPE Inhibition EC50"}, "Measles Virus [6]": {"system": "Measles Virus", "experiment": "Measles virus neutral red dye uptake in BSC-1 cells", "format": "cell-based", "conditions": "Measles morbillivirus, BSC-1"}, "[7]": {"system": "Influenza A (H1N1) Texas/36/91", "experiment": "microbe, parasite or virus in culture", "format": "cell-based, influenza A virus", "conditions": "Influenza A virus, MDCK; Influenza A (H1N1) Texas/36/91; read-out: Neutral Red EC50"}, "Hepatitis B Virus (HBV) [8]": {"system": "Hepatitis B Virus (HBV)", "experiment": "Inhibition of HBV replication in 2.2.15 cells, extracellular (virion) HBV DNA;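 on all read-outs here: extracellular virion HBV DNA in culture medium measured by slot blot hybridization with a 32P-labeled HBV probe, quantified against HBV DNA standards, after 9 days of daily dosing, compared with day 0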", "conditions": "for EC90: 2.2.15 cells; for SI (CC50/EC90), HBV Virion: selective index"}, "[9]": {"system": "Influenza A (H3N2) Beijing/32/92", "experiment": "microbe, parasite or virus in culture", "format": "cell-based, influenza A virus", "conditions": "Influenza A virus, MDCK; Influenza A (H3N2) Beijing/32/92; read-out: CPE Inhibition EC50"}, "in vitro [10]": {"experiment": "in vitro", "conditions": "human"}, "[11]": {"experiment": "Cytotoxicity in uninfected PHA-stimulated human PBM cells", "conditions": "human"}, "HCMV": {"system": "HCMV", "experiment": "HCMV CPE inhibition in HFF cells"}, "Influenza B Panama/45/90": {"system": "Influenza B Panama/45/90", "experiment": "microbe, parasite or virus in culture", "format": "cell-based", "conditions": "Influenza B virus, MDCK; Influenza B Panama/45/90; read-out: CPE Inhibition EC50"}, "[12]": {"conditions": "range-finding, CMC vehicle, 200 mg/kg/day i.p. twice daily for 5 days"}, "[13]": {"conditions": "range-finding, DMSO, 75 mg/kg/day, 0.05 mL injection volume"}, "[14]": {"conditions": "range-finding, DMSO, 250 mg/kg/day i.p. twice daily for 5 days, 0.1 mL"}, "[15]": {"conditions": "robustaflavone in DMSO, 37.5 mg/kg/day i.p. bid × 5"}, "[16]": {"conditions": "robustaflavone in DMSO, 75 mg/kg/day i.p. bid × 5"}}, "note": "Like-named read-outs stand apart in the source and are kept apart here."}
{"smiles": "O=c1cc(-c2ccc(O)c(-c3c(O)cc4oc(-c5ccc(O)cc5)cc(=O)c4c3O)c2)oc2cc(O)cc(O)c12", "note": "[Robustaflavone (3), robustaflavone]", "values": [{"measurement": "CPE Inhibition IC50 (cytotoxic)", "setting": "[1]", "value": "˜32 ug/mL"}, {"measurement": "EC50", "setting": "Adenovirus Type 5", "value": "> 100", "unit": "µg/mL"}, {"measurement": "EC50", "setting": "Hepatitis B Virus (HBV) [2]; Hepatitis B virus, read-out: EC50, HBV replication intermediates (RI) (intracellular DNA)", "value": 600, "unit": "nM"}, {"measurement": "EC50", "setting": "Hepatitis B Virus (HBV) [2]; Hepatitis B virus, read-out: EC50, second value in parentheses", "value": 600, "unit": "nM"}, {"measurement": "EC90", "setting": "Hepatitis B Virus (HBV) [2]; Hepatitis B virus, Table 2, value in parentheses, not explained, read-out: EC90, second value in parentheses", "value": 5.6, "unit": "µM"}, {"measurement": "SI (CC50/EC90), second value in parentheses", "setting": "Hepatitis B Virus (HBV) [2]; Table 2, value in parentheses, not explained", "value": 60}, {"measurement": "EC50", "setting": "Measles Virus [3]", "value": "< 14", "unit": "µg/mL"}, {"measurement": "IC50", "setting": "in vitro [4]", "value": "< 14", "unit": "µg/mL"}, {"measurement": "EC50", "setting": "[5]", "value": "> 100", "unit": "µg/mL"}, {"measurement": "EC50", "setting": "Measles Virus [6]", "value": "< 30", "unit": "µg/mL"}, {"measurement": "tolerability in the antiviral experiment (in words)", "setting": "CMC, 200 and 100 mg/kg/day", "value": "well tolerated"}, {"measurement": "toxicity control mice killed", "setting": "DMSO, 37.5 mg/kg/day", "value": "2 of 3"}, {"measurement": "toxicity in the antiviral experiment (in words)", "setting": "DMSO, 75 mg/kg/day", "value": "lethally toxic"}, {"measurement": "toxicity in the antiviral experiment (in words)", "setting": "DMSO, 75 and 37.5 mg/kg/day", "value": "toxic to the mice"}, {"measurement": "Toxicity Controls Surv/Total", "setting": "female, BALB/c, mouse, in vivo, ip, 200 mg/kg/day", "value": "3/3"}, {"measurement": "Toxicity Controls Mean Weight Change", "setting": "mouse, in vivo, ip, 200 mg/kg/day", "value": 1.5, "unit": "g"}, {"measurement": "Toxicity Controls Mean Weight Change", "setting": "mouse, in vivo, ip, 1005 mg/kg/day", "value": 1.9, "unit": "g"}, {"measurement": "tolerability (in words)", "setting": "[12]", "value": "reasonably well tolerated"}, {"measurement": "weight lost in the 5-day treatment period", "setting": "[12]", "value": 0.1, "unit": "g"}, {"measurement": "survival (in words)", "setting": "[13]", "value": "all mice survived"}, {"measurement": "weight lost during the 5-day treatment period", "setting": "[13]", "value": 2, "unit": "g"}, {"measurement": "tolerability (in words)", "setting": "[14]", "value": "lethally toxic"}, {"measurement": "weight loss", "setting": "[14]", "value": 6, "unit": "g"}, {"measurement": "Toxicity Controls Surv/Total", "setting": "robustaflavone in 0.4% CMC, 1005 mg/kg/day (so in the source) i.p. bid × 5", "value": "4/4"}, {"measurement": "Toxicity Controls Mean Weight Change", "setting": "[15]", "value": -0.8, "unit": "g"}, {"measurement": "Toxicity Controls Surv/Total", "setting": "[15]", "value": "1/3"}, {"measurement": "Toxicity Controls Mean Weight Change", "setting": "[16]", "value": -1.7, "unit": "g"}, {"measurement": "Toxicity Controls Surv/Total", "setting": "[16]", "value": "0/3"}, {"measurement": "EC50", "setting": "[7]", "value": 2, "unit": "µg/mL"}, {"measurement": "EC50", "setting": "Hepatitis B Virus (HBV) [8]; Hepatitis B virus, read-out: EC50, concentration necessary to decrease HBV DNA levels by 50%, 2.2.15 cells, combinations: with respect to RF", "value": 250, "unit": "nM"}, {"measurement": "EC90", "setting": "Hepatitis B Virus (HBV) [8]; read-out: EC90 (90% effective dose), HBV Virion, extracellular (virion) HBV DNA, 9 days treatment", "value": 2400, "unit": "nM"}, {"measurement": "EC90", "setting": "Hepatitis B Virus (HBV) [8]; read-out: EC90 (90% effective dose), HBV Virion, extracellular (virion) HBV DNA, 9 days treatment, listed as Robustaflavone", "value": 2200, "unit": "nM"}, {"measurement": "EC90", "setting": "Hepatitis B Virus (HBV) [8]; read-out: EC90, concentration necessary to decrease HBV DNA levels by 90%, combinations: with respect to RF", "value": 2200, "unit": "nM"}, {"measurement": "SI (CC50/EC90), HBV Virion", "setting": "Hepatitis B Virus (HBV) [8]", "value": 153}, {"measurement": "SI (CC50/EC90), HBV Virion", "setting": "Hepatitis B Virus (HBV) [8]; listed as Robustaflavone", "value": 153}, {"measurement": "SI (CC50/EC90), HBV Virion", "setting": "Hepatitis B Virus (HBV) [8]; listed as robustaflavone", "value": 153}, {"measurement": "EC50", "setting": "[9]", "value": 1.9, "unit": "µg/mL"}, {"measurement": "IC50", "setting": "in vitro [10]", "value": 56, "unit": "µg/mL"}, {"measurement": "IC50", "setting": "[11]", "value": 77, "unit": "µM"}, {"measurement": "HCMV SI (CC50/EC50)", "setting": "HCMV; HFF Cells", "value": ">1.8"}, {"measurement": "EC50", "setting": "HCMV; Human betaherpesvirus 5, HFF, read-out: HCMV CPE Inhibition EC50", "value": 54.8, "unit": "µg/mL"}, {"measurement": "EC50", "setting": "Influenza B Panama/45/90", "value": 0.23, "unit": "µg/mL"}]}
